Legend:
[1] = system: MIA-PACA2 pancreatic cancer cell lines; test: Cell proliferation assay, alternate assay conditions (DAPI fluorescence); assay type: cell-based; conditions: Homo sapiens, MIA PaCa-2; * = tested at 10 μM, alternate conditions, MIA-PACA2
Experimental: Cell lines: Tumor-derived pancreatic cancer cell lines MIA-PACA2 were purchased from ATCC and grown in complete DMEM-High Glucose medium supplemented with penicillin (100 U/mL), streptomycin (100 μg/mL), and 10% heat-inactivated FBS at 37° C. in a humidified incubator with 5% CO2.
Method: Cells are plated at 4000 cells/well density in 96-wells plate. The next day tested small molecules are added to the cells in the final concentration of 10 μM in the presence of 0.3% DMSO and 10% FBS. After small molecules addition, cells are incubated for 4 days at 37° C. in a humidified incubator with 5% CO2. For IC50 value determination, serial dilutions of compounds were added to cells under the same conditions.
Assay: At the end of the incubation period, cell cultures are fixed with a 50-50 mixture (v/v) acetone-methanol for 10 minutes at −20° C., followed by rehydration in PBS for 10 minutes at room temperature. After rehydration, cells are stained with DAPI (1 μg/ml) in PBS for 10 minutes at room temperature, followed by 3 washes with PBS. After staining, DAPI fluorescence is recorded (358 nm excitation/461 nm emission) with the 96-well plate reader Molecular Devices Spectramax M3; degree of small mole-cule-dependent proliferation inhibition is calculated from raw data assuming No Serum cells value as 100%.

[2] = target: KRas G12D/Q61H double mutant (Homo sapiens (Human), UniProt P01116, G12D/Q61H); test: Ras GTP binding domain inhibition assay (labeled GTP); conditions: 20 μM compound; KRas G12D/Q61H double mutant; read-out: % Inhibition at 20 μM of K-Ras mutant and wild-type protein, KRas G12D Q61H
How it was run: (§1)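 Fluorescence read-out of Cy3-/Cy5-GTP remaining bound to nickel-immobilized His-KRas after washes. Protein was coated overnight at 4° C, then exposed to compound for 3 h at room temperature before a 45 min labeled-GTP incubation.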

[3] = target: KRas G12C/Q61H double mutant (Homo sapiens (Human), UniProt P01116, G12C/Q61H); test: as above; conditions: 20 μM compound; KRas G12C/Q61H double mutant; read-out: % Inhibition at 20 μM of K-Ras mutant and wild-type protein, KRas G12C Q61H
How it was run: as §1

KRas Q61H mutant = KRas Q61H mutant (Homo sapiens (Human), UniProt P01116, Q61H); test: as above; conditions: 20 μM compound; KRas Q61H; read-out: % Inhibition at 20 μM of K-Ras mutant and wild-type protein, KRas Q61H
How it was run: as §1

KRas G12C mutant = KRas G12C mutant (Homo sapiens (Human), UniProt P01116, G12C); test: as above; conditions: 20 μM compound; KRas G12C; read-out: % Inhibition at 20 μM of K-Ras mutant and wild-type protein, KRas G12C
How it was run: as §1

KRas wild type = KRas wild type (Homo sapiens (Human), UniProt P01116); test: as above; conditions: 20 μM compound; KRas wild type; read-out: % Inhibition at 20 μM of K-Ras mutant and wild-type protein, KRas wild type
How it was run: as §1

KRas G12D mutant protein = KRas G12D mutant protein (Homo sapiens (Human), UniProt P01116, G12D); test: as above; conditions: 20 μM compound; KRas G12D; read-out: % Inhibition at 20 μM of K-Ras mutant and wild-type protein, KRas G12D
Sequence of KRas G12D mutant protein (P01116-2 other isoform, or with tags, fused parts or gaps G12D): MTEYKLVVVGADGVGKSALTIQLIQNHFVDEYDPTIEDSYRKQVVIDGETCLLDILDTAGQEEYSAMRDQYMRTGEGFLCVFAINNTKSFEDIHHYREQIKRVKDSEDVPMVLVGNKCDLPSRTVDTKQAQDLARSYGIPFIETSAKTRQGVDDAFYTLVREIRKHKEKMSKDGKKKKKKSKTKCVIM

Sequence of KRas G12D/Q61H double mutant (P01116-2 other isoform, or with tags, fused parts or gaps G12D/Q61H): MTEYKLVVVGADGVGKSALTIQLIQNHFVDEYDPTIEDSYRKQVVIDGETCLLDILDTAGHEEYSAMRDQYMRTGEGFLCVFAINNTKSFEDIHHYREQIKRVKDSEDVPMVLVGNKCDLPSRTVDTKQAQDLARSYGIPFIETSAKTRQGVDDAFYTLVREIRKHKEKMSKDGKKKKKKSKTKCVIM
Sequence of KRas wild type (P01116-2 other isoform, or with tags, fused parts or gaps): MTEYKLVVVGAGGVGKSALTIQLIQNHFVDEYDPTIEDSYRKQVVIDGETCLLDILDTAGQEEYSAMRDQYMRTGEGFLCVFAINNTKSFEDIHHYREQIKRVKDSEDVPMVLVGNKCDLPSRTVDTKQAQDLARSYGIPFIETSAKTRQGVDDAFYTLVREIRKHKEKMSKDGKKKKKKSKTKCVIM
Sequence of KRas G12C/Q61H double mutant (P01116-2 other isoform, or with tags, fused parts or gaps G12C/Q61H): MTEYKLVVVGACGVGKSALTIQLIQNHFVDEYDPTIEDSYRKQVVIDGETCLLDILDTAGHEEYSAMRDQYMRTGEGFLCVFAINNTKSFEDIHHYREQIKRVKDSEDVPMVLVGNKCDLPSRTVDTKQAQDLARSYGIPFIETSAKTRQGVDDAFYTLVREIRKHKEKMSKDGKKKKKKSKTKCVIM
Sequence of KRas G12C mutant (P01116-2 other isoform, or with tags, fused parts or gaps G12C): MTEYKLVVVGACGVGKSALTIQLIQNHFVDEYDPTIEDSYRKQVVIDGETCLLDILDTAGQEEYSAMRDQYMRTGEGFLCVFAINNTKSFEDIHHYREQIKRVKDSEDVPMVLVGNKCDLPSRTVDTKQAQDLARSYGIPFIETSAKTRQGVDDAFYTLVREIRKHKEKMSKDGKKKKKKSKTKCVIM
Sequence of KRas Q61H mutant (P01116-2 other isoform, or with tags, fused parts or gaps Q61H): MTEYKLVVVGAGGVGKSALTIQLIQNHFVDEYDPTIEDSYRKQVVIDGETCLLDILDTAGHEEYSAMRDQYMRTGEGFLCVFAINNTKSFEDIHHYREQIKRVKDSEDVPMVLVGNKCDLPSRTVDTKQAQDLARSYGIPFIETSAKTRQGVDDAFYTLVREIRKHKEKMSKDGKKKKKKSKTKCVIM

Row | Structure (SMILES) | inhibition at 10 µM [1] [%] | inhibition at 20 µM [2] [%] | inhibition at 20 µM [3] [%] | inhibition at 20 µM (KRas Q61H mutant) [%] | inhibition at 20 µM (KRas G12C mutant) [%] | inhibition at 20 µM (KRas wild type) [%] | inhibition at 20 µM (KRas G12D mutant protein) [%]
1 | COc1cnc(CNC(=O)c2csc3nc(-c4ccccn4)nc(N)c23)[nH]c1=O [drawing 1819] | 0 |  |  |  |  |  | 
2 | Oc1nc(-c2ccccn2)nc2c(C3CC3)csc12 [drawing 1820] | 76 to 100 |  |  |  |  |  | 
3 | Oc1nc(-c2ccccn2)nc2c(CC3CNC3)csc12 [drawing 1821] | 25 to 50 |  |  |  |  |  | 
4 | COc1cnc(CNC(=O)c2csc3c(O)nc(-c4ccccn4)nc23)[nH]c1=O [drawing 1822] | 51 to 75 |  |  |  |  |  | 
5 | COc1cnc(CNC(=O)c2cc3nc(-c4ccccn4)nc(O)c3s2)[nH]c1=O [drawing 1823] | 25 to 50 |  |  |  |  |  | 
6 | Cc1sc2c(O)nc(-c3ccccn3)nc2c1Br [drawing 1824] | 76 to 100 |  |  |  |  |  | 
7 | COc1cnc(CNC(=O)c2c(C)sc3c(O)nc(-c4ccccn4)nc23)[nH]c1=O [drawing 1825] | 0 |  |  |  |  |  | 
8 | COc1cnc(CNC(=O)c2sc3c(O)nc(-c4ccccn4)nc3c2C)[nH]c1=O [drawing 1826] | 0 |  |  |  |  |  | 
9 | O=C(c1csc2c(O)nc(-c3ccccn3)nc12)N1CCNC(c2ccc(Cl)cc2)C1 (stereo not drawn) [drawing 1827] | 76 to 100 |  |  |  |  |  | 
10 | Oc1nc(-c2ccccn2)nc2c(CC3CCNC3)csc12 (stereo not drawn) [drawing 1828] | 0 |  |  |  |  |  | 
11 | O=c1[nH]c(-c2ccccn2)nc2c([C@@H]3O[C@H](CO)[C@@H](O)[C@H]3O)csc12 [drawing 1829] | 76 to 100 |  |  |  |  |  | 
12 | Cn1cnc(-c2nc(O)c3c(-c4ccccc4)c(-c4ccncc4)sc3n2)c1 [drawing 1830] | 76 to 100 |  |  |  |  |  | 
13 | COCCNc1nc(-c2ccccn2)nc(-c2cccc(OCCN(C)C)c2)c1Oc1ccccc1 [drawing 1831] | 76 to 100 |  |  |  |  |  | 
14 | COCCNc1nc(-c2cn(C)cn2)nc2sc(-c3ccncc3)c(-c3ccccc3)c12 [drawing 1832] | 76 to 100 |  |  |  |  |  | 
15 | COc1nc(-c2cn(C)cn2)nc2sc(-c3ccncc3)c(-c3ccccc3)c12 [drawing 1833] | 76 to 100 |  |  |  |  |  | 
16 | COc1nc(-c2cn(C)cn2)nc2sc(-c3ccncc3)c(-c3ccccc3)c12 [drawing 3531] |  | 25 to 50 | 1 to 25 | 25 to 50 | 25 to 50 | 1 to 25 | 25 to 50
17 | COc1ccc(COC[C@H]2O[C@@H](c3csc4c(=O)[nH]c(-c5ccccn5)nc34)[C@H](O)[C@@H]2O)cc1 [drawing 3533] |  | 25 to 50 | 51 to 75 | 51 to 75 | 25 to 50 | 1 to 25 | 25 to 50
18 | OCC1(c2ccc(-c3nc(-c4ccccn4)nc(O)c3Oc3ccccc3)cc2)CC1 [drawing 3534] |  | 51 to 75 | 76 to 100 | 76 to 100 | 51 to 75 | 1 to 25 | 25 to 50
19 | COCCNc1nc(-c2ccccn2)nc2c1c(-c1ccccc1)nn2-c1ccccn1 [drawing 3538] |  | 51 to 75 | 76 to 100 | 51 to 75 | 51 to 75 | 51 to 75 | 51 to 75
20 | Oc1nc(-c2ccccn2)nc2c1c(-c1ccccc1)nn2-c1ccccn1 [drawing 3539] |  | 51 to 75 | 51 to 75 | 51 to 75 | 51 to 75 | 25 to 50 | 51 to 75
21 | COc1nc(-c2ccccn2)nc2c1c(-c1ccccc1)nn2-c1ccccn1 [drawing 3540] |  | 51 to 75 | 25 to 50 | 51 to 75 | 51 to 75 | 25 to 50 | 51 to 75
22 | COCC(C)Nc1nc(-c2ccccn2)nc2sc(-c3ccncc3)c(-c3ccccc3)c12 (stereo not drawn) [drawing 3541] |  | 51 to 75 | 25 to 50 | 51 to 75 | 51 to 75 | 25 to 50 | 25 to 50
23 | COc1c(O)nc(-c2ccccn2)nc1Oc1cccc(C(F)(F)F)c1 [drawing 3557] |  | 51 to 75 | 76 to 100 | 51 to 75 | 25 to 50 | 25 to 50 | 76 to 100
24 | Oc1nc(-c2ccccn2)nc(Oc2cccc(C(F)(F)F)c2)c1O [drawing 3558] |  | 51 to 75 | 76 to 100 | 51 to 75 | 51 to 75 | 1 to 25 | 51 to 75
25 | Oc1nc(-c2ccccn2)nc2cc(-c3ccncc3)sc12 [drawing 3561] |  | 51 to 75 | 25 to 50 | 25 to 50 | 25 to 50 | 51 to 75 | 51 to 75
26 | Oc1nc(-c2ccccn2)nc2cc(-c3ccccc3)sc12 [drawing 3562] |  | 51 to 75 | 25 to 50 | 25 to 50 | 25 to 50 | 51 to 75 | 51 to 75

Source: patent US10940139B2, “Compounds that interact with the Ras superfamily for the treatment of cancers, inflammatory diseases, rasopathies, and fibrotic disease” (Shy Therapeutics LLC, priority 2017, dated 2021)
